How the values were obtained:
Format in all cases: binding
CREBBP = molecular target: T1, CREBBP (Homo sapiens, UniProt Q92793); assay: Protein stability (thermal) shift assay, CREBBP; conditions: compound 10 μM, protein 2 μM; average of triplicate; read-out: ΔTm Shift, CREBBP
T1 construct: small thermal shits (1.0–1.3 °C) for the bromodomain of CREBBP; made in house
Experimental: (§1) Thermal melting experiments were carried out using an Mx3005p real time PCR machine (Stratagene). Proteins were buffered in 10 mM HEPES, pH 7.5, 500 mM NaCl and assayed in a 96-well plate at a final concentration of 2 μM in 20 μL volume. Compounds were added at a final concentration of 10 or 100 μM. SYPRO Orange (Molecular Probes) was added as a fluorescence probe at a dilution of 1 in 1000. Excitation and emission filters for the SYPRO-Orange dye were set to 465 and 590 nm, respectively. The temperature was raised with a step of 3 °C per minute from 25 to 96 °C, and fluorescence readings were taken at each interval. The temperature dependence of the fluorescence during the protein denaturation process was approximated by the equation [drawing 1] where ΔuG is the difference in unfolding free energy between the folded and unfolded state, R is the gas constant, and yF and yU are the fluorescence intensity of the probe in the presence of completely folded and unfolded protein, respectively.[65] The baselines of the denatured and native states were approximated by a linear fit. The observed temperature shifts, ΔTm^obs, were recorded as the difference between the transition midpoints of sample and reference wells containing protein without ligand in the same plate and determined by nonlinear least-squares fit. Temperature shifts (ΔTm^obs) for three independent measurements per proteins/compound are summarized in Supporting Information Table S1.

BRD3(2) = molecular target: T2, BRD3(2) (Homo sapiens, UniProt Q15059); assay: Protein stability (thermal) shift assay, BRD3(2); conditions: compound 10 μM, protein 2 μM; average of triplicate
T2 construct: made in house
Experimental: as §1

BRD3(1) = molecular target: T3, BRD3(1) (Homo sapiens, UniProt Q15059); assay: Protein stability (thermal) shift assay, BRD3(1); conditions: compound 10 μM, protein 2 μM; average of triplicate
T3 construct: Fragments were tested in a thermal shift assay against bromodomains of the BET subfamily; made in house
Experimental: as §1

BRD4(1) = molecular target: T4, BRD4(1) (Homo sapiens, UniProt O60885); assay: Protein stability (thermal) shift assay, BRD4(1); conditions: compound 10 μM, protein 2 μM; average of triplicate; read-out: ΔTm Shift, BRD4(1)
T4 construct: made in house
Experimental: as §1

BRD2(1) = molecular target: T5, BRD2(1) (Homo sapiens, UniProt P25440); assay: Protein stability (thermal) shift assay, BRD2(1); conditions: compound 10 μM, protein 2 μM; average of triplicate
T5 construct: Fragments were tested in a thermal shift assay against bromodomains of the BET subfamily; made in house
Experimental: as §1

BRDT(2) = molecular target: T6, BRDT(2) (Homo sapiens, UniProt Q58F21); assay: Protein stability (thermal) shift assay, BRDT(2); conditions: compound 10 μM, protein 2 μM; average of triplicate; read-out: ΔTm Shift, BRDT(2)
T6 construct: made in house
Experimental: as §1

BRDT(1) = molecular target: T7, BRDT(1) (Homo sapiens, UniProt Q58F21); assay: Protein stability (thermal) shift assay, BRDT(1); conditions: compound 10 μM, protein 2 μM; average of triplicate
T7 construct: made in house
Experimental: as §1

BAZ2B = molecular target: T8, BAZ2B (Homo sapiens, UniProt Q9UIF8); assay: Protein stability (thermal) shift assay, BAZ2B; conditions: compound 10 μM, protein 2 μM; average of triplicate; read-out: ΔTm Shift, BAZ2BA
T8 construct: representative BRDs from other structural subfamilies (family I, PCAF); family III, CREBBP; family IV, BRD9; family V, BAZ2B; made in house
T8 sequence (Q9UIF8 2060-2164 limits assumed): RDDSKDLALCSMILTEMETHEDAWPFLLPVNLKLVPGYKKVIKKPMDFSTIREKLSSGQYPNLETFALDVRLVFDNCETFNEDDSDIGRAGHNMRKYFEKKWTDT
Experimental: as §1

PB1(5) = molecular target: T9, PB1(5) (Homo sapiens, UniProt Q86U86); assay: Protein stability (thermal) shift assay, PB1(5); conditions: compound 10 μM, protein 2 μM; average of triplicate
T9 construct: made in house
Experimental: as §1

PCAF = molecular target: T10, PCAF (Homo sapiens, UniProt Q92831); assay: Protein stability (thermal) shift assay, PCAF; conditions: compound 10 μM, protein 2 μM; average of triplicate
T10 construct: representative BRDs from other structural subfamilies (family I, PCAF); made in house
T10 sequence (Q92831 723-827 limits assumed): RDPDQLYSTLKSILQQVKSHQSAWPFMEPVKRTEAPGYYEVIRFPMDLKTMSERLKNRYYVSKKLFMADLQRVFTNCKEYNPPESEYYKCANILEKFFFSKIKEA
Experimental: as §1

BRD2(2) = molecular target: T11, BRD2(2) (Homo sapiens, UniProt P25440); assay: Protein stability (thermal) shift assay, BRD2(2); conditions: compound 10 μM, protein 2 μM; average of triplicate
T11 construct: made in house
Experimental: as §1

BRD4(2) = molecular target: T12, BRD4(2) (Homo sapiens, UniProt O60885); assay: Protein stability (thermal) shift assay, BRD4(2); conditions: compound 10 μM, protein 2 μM; average of triplicate
T12 construct: made in house
Experimental: as §1

BRD9 = molecular target: T13, BRD9 (Homo sapiens, UniProt Q9H8M2); assay: Protein stability (thermal) shift assay, BRD9; conditions: compound 10 μM, protein 2 μM; average of triplicate; read-out: ΔTm Shift, BRD9
T13 construct: made in house
T13 sequence (Q9H8M2 136-240 limits assumed): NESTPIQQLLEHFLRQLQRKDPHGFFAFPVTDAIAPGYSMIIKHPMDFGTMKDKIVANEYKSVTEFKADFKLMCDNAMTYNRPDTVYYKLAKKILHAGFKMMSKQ
Experimental: as §1

T1 sequence (Q92793 1085-1192 limits assumed): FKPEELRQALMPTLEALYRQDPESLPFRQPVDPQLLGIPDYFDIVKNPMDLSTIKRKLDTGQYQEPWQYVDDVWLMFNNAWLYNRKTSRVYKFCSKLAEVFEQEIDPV
T11 sequence (P25440 344-453 limits assumed): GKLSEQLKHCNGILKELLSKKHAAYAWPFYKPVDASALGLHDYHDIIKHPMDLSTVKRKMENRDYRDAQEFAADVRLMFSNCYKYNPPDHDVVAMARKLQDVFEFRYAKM
T2 sequence (Q15059 306-415 limits assumed): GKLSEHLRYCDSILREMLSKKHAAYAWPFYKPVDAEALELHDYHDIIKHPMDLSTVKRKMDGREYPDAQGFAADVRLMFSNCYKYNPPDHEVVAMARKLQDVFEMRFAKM
T9 sequence (Q86U86 653-763 limits assumed): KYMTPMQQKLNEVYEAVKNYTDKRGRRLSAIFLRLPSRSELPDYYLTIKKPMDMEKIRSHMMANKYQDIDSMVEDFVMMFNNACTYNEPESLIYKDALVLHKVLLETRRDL
T5 sequence (P25440 74-180 limits assumed): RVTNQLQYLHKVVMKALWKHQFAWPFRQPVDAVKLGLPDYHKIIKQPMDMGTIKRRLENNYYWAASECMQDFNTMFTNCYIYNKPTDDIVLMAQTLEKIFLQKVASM
T3 sequence (Q15059 34-140 limits assumed): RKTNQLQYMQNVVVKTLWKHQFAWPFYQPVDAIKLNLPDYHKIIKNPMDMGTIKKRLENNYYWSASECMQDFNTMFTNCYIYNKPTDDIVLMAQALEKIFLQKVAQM

| Structure (SMILES) | ΔTm at 10 µM (CREBBP) [°C] | ΔTm at 10 µM (BRD3(2)) [°C] | ΔTm at 10 µM (BRD3(1)) [°C] | ΔTm at 10 µM (BRD4(1)) [°C] | ΔTm at 10 µM (BRD2(1)) [°C] | ΔTm at 10 µM (BRDT(2)) [°C] | ΔTm at 10 µM (BRDT(1)) [°C] | ΔTm at 10 µM (BAZ2B) [°C] | ΔTm at 10 µM (PB1(5)) [°C] | ΔTm at 10 µM (PCAF) [°C] | ΔTm at 10 µM (BRD2(2)) [°C] | ΔTm at 10 µM (BRD4(2)) [°C] | ΔTm at 10 µM (BRD9) [°C] |
| --- | --- | --- | --- | --- | --- | --- | --- | --- | --- | --- | --- | --- | --- |
| Clc1nc(Cl)c2nc[nH]c2n1 [Compound 1, 2,6-dichloro-9H-purine] | 1.6 | -0.159 | 0.7 | 1.6 | 0.361 | -0.234 | -0.8 | -0.1 | 1.4 | -0.8 | -0.374 | 0.5 | – |
| Nc1nc(-c2ccc(COc3cccc(C(F)(F)F)c3)cc2)c2nc[nH]c2n1 [Compound 3g, 2-Amino-6-(4-(3′-(trifluoromethyl)phenoxymethyl)phenyl)-9H-purine] | 0.363 | 0.215 | -0.125 | -0.18 | -0.5 | 0.271 | -0.322 | -1 | 0.339 | 0.1 | 0.459 | -7.9 | -0.9 |
| COc1cc(COc2ccc(-c3nc(N)nc4[nH]cnc34)cc2Cl)cc(OC)c1 [Compound 4b, 2-Amino-6-(3-chloro-4-(3′,5′-dimethoxybenzyloxy)phenyl)-9H-purine] | -0.04 | -0.379 | 0.445 | 0.54 | -0.113 | 0.7 | 0.658 | 2.3 | 0.7 | 1.6 | 0.159 | -2.9 | -2 |
| Nc1nc(-c2cccc(OCc3ccc(Cl)cc3)c2)c2nc[nH]c2n1 [Compound 4d, 2-Amino-6-(3-(4′-chlorobenzyloxy)phenyl)-9H-purine] | 1.5 | 1.2 | 0.7 | 1.5 | 0.643 | 1.2 | 0.7 | 0.653 | 0.553 | 0.7 | 1.4 | 1 | – |
| CCCCOc1cc(Br)cc(-c2nc(N)nc3[nH]cnc23)c1 [Compound 5a, 2-Amino-6-(3-bromo-5-butoxyphenyl)-9H-purine] | 1.7 | 1.5 | 0.9 | 1.6 | 0.7 | 1.8 | 1 | 1.1 | 1.1 | 1.3 | 1.7 | 1.3 | 1.1 |
| COc1cccc(OCC(C)C)c1-c1nc(N)nc2[nH]cnc12 [Compound 6c, 2-Amino-6-(2-isobutoxy-6-methoxyphenyl)-9H-purine] | -0.4 | 1.1 | 1.2 | 1 | 0.187 | 0.8 | -0.0153 | -0.147 | -0.324 | -0.121 | 0.6 | 0.4 | -0.0523 |

Now from value to compound:

| ΔTm at 10 µM (CREBBP) [°C] | ΔTm at 10 µM (BRD3(2)) [°C] | ΔTm at 10 µM (BRD3(1)) [°C] | ΔTm at 10 µM (BRD4(1)) [°C] | ΔTm at 10 µM (BRD2(1)) [°C] | ΔTm at 10 µM (BRDT(2)) [°C] | ΔTm at 10 µM (BRDT(1)) [°C] | ΔTm at 10 µM (BAZ2B) [°C] | ΔTm at 10 µM (PB1(5)) [°C] | ΔTm at 10 µM (PCAF) [°C] | ΔTm at 10 µM (BRD2(2)) [°C] | ΔTm at 10 µM (BRD4(2)) [°C] | ΔTm at 10 µM (BRD9) [°C] | Structure (SMILES) |
| --- | --- | --- | --- | --- | --- | --- | --- | --- | --- | --- | --- | --- | --- |
| 0.663 | 0.4 | -0.06 | 0.223 | -0.253 | -0.167 | -0.133 | 0.00333 | -0.08 | 0.0867 | 0.337 | 0.0133 | 0 | COc1ccc(-c2nc(N)nc3[nH]cnc23)cc1 [Compound 3b, 2-Amino-6-(4-methoxyphenyl)-9H-purine] |
| 0.6 | 0.7 | -0.127 | 0.533 | -0.0833 | 0.3 | 0.253 | 0.273 | 0.0567 | 0.2 | 0.5 | 0.5 | 0.847 | Nc1nc(-c2ccc(Oc3ccccc3)cc2)c2nc[nH]c2n1 [Compound 3d, 2-Amino-6-(4-phenoxyphenyl)-9H-purine] |
| 1 | 2 | 0.5 | 0.6 | 0.354 | 0.7 | 0.528 | -0.127 | 0.5 | -0.2 | 1.2 | -2.8 | -0.532 | COCCc1ccc(OCc2ccc(-c3nc(N)nc4[nH]cnc34)cc2)cc1 [Compound 3h, 2-Amino-6-(4-((4′-(2-methoxyethyl)phenoxy)methyl)phenyl)-9H-purine] |
| 0.9 | -0.092 | -0.252 | -0.15 | -0.5 | 0.224 | -0.0553 | -0.367 | 0.536 | -0.2 | -0.5 | -2.6 | -1.7 | Nc1nc(-c2ccc(OCc3ccccc3)c(Cl)c2)c2nc[nH]c2n1 [Compound 4a, 2-Amino-6-(4-benzyloxy-3-chlorophenyl)-9H-purine] |
| -1.5 | 0.9 | 0.0747 | 0.4 | -0.3 | -0.166 | -0.125 | -0.9 | -1.6 | -1.2 | -0.0273 | -1.3 | 0.8 | Nc1nc(-c2ccc3c(c2)OCCO3)c2nc[nH]c2n1 [Compound 4c, 2-Amino-6-(2,3-dihydrobenzo[b][1,4]dioxin-6-yl)-9H-purine] |
| 0.34 | 1.3 | 0.341 | 0.7 | 0.167 | 0.364 | -0.122 | 0.0167 | 0.4 | -0.4 | 0.4 | -1.3 | -0.1 | COc1cccc(OC)c1-c1nc(N)nc2[nH]cnc12 [Compound 6a, 2-Amino-6-(2,6-dimethoxyphenyl)-9H-purine] |
| -0.1 | 0.6 | 0.651 | 0.6 | -0.459 | 0.447 | 0.165 | -0.3 | 0.216 | -0.261 | -0.3 | -0.845 | -0.162 | COc1cccc(OC(C)C)c1-c1nc(N)nc2[nH]cnc12 [Compound 6b, 2-Amino-6-(2-isopropoxy-6-methoxyphenyl)-9H-purine] |

Source: publication PMC4403932 (Journal of Medicinal Chemistry, 2015)
